From PMC8151276, “An Integrated Approach toward NanoBRET Tracers for Analysis of GPCR Ligand Engagement” (Molecules, 2021)

Columns and labels:
Format in all cases: binding
HTR4 = target: T1, HTR4 (Homo sapiens, UniProt Q13639); experiment: NanoBRET screen HiBiT-HTR4 in HEK293; settings: HTR4
T1 construct: purchased Promega (in-house HiBiT-GPCR construct library, NanoBRET)
Description: (§1) Each tracer candidate was screened across the entire library of HiBiT-GPCR constructs using NanoBRET as the detection modality. As depicted in Figure 4A, the specificity of interactions was evaluated through decrease in BRET due to competitive displacement of a bound tracer by excess parental compound. Each tracer was analyzed for binding to each HiBiT-GPCR fusion in the absence and in the presence of competing parental compound. Briefly, HEK293 cells were transfected with HiBiT-GPCR constructs diluted into promoterless DNA to reduce expression and maximize translocation to the cell surface. Each tracer candidate was then screened at concentrations of 1 μM and 0.1 μM across cells expressing these fusions. Cells were treated for 1.5 h with tracer either alone or in the presence of 20 μM competing parental compound (i.e., control). BRET was measured upon addition of purified LgBiT and subsequent complementation with HiBiT genetically fused to a GPCR. The specificity of interactions was assessed through a decrease in BRET signal due to competitive displacement of the bound tracer. To further gauge the robustness of these interactions, the fold response over the control (i.e., BRETtracer/BRETcontrol) was calculated. We chose a 1.5-fold response, which translates to ≥7-fold signal over noise as the minimal threshold required to score an interaction as positive. […]. Below we highlight the screening results obtained for our exemplary fluorescent tracers based on Clozapine, Amitriptyline and AZD1283.
(§2) HiBiT-GPCR DNA constructs were diluted in 10 mM Tris pH 8 to a final concentration of 0.01 μg/μL, arrayed in 96-well plates and stored at −20 °C. For transfection, HEK293 cells were suspended in Opti-MEM (without phenol red) supplemented with 2% fetal bovine serum (Seradigm) and 100 units/mL penicillin–streptomycin (Gibco) at a final concentration of 220,000 cells/mL and dispensed into white 96-well plates at 90 μL/well. Subsequent transfections and screens were carried using an Agilent Bravo Automated Liquid Handling Platform. First, the 96-well HiBiT DNA arrays were diluted 25-fold in Opti-MEM (without serum or phenol red) to a final concentration of 0.0004 μg/μL and 20 μL of the diluted DNAs were transferred into new 96-well plates. Next, promoterless carrier DNA (1 μg/μL) was diluted 25-fold (0.04 μg/μL) and then dispensed into the diluted arrays at 20 μL/well. Following brief mixing, Viafect transfection reagent (Promega) diluted 16-fold into Opti-MEM was dispensed into the plates at 40 μL/well. After mixing by pipetting, plates were incubated for 10 min on the pipetting station deck. The DNA-transfection reagent complexes were then added to plates containing cells. To facilitate the screen, 10 μL of DNA-transfection reagent complexes were added in duplicates to the top 4 and bottom 4 rows, resulting in two identical 48-well arrays per plate. Plates with transfected cells were incubated for 18–20 h at 37 °C/5% CO2. A screen of each tracer across the entire library using two different concentrations requires duplicate plates of transfected cells. Depending on the number of tracers being screened, transfections can be scaled up using the same ratios. The next day, for each tracer, four 20× screening solutions in tracer dilution buffer (Promega) were prepared: two duplicates at final concentration of 20 μM and two duplicates at a final concentration of 2 μM. A competing unmodified compound was added to one of each duplicate at a final concentration of 400 μM. The four resulting solutions were diluted 4-fold in Opti-MEM without serum or phenol red to generate 5× solutions (5 µM and 0.5 µM tracer +/− 100 μM competing compound). To screen the library, a BioTek MultiFlo FX liquid dispenser was used to dispense 22.5 µL of tracer solution to the top 4 rows and 22.5 µL tracer + competing compound solution to the 4 bottom rows. Plates were briefly mixed on an orbital shaker and incubated for 1.5 h at room temperature. […]

ADRB1 = target: T2, ADRB1 (Homo sapiens, UniProt P08588); experiment: NanoBRET screen HiBiT-ADRB1 in HEK293; settings: ADRB1
T2 construct: purchased Promega (in-house HiBiT-GPCR construct library, NanoBRET)
T2 sequence (P08588 whole entry): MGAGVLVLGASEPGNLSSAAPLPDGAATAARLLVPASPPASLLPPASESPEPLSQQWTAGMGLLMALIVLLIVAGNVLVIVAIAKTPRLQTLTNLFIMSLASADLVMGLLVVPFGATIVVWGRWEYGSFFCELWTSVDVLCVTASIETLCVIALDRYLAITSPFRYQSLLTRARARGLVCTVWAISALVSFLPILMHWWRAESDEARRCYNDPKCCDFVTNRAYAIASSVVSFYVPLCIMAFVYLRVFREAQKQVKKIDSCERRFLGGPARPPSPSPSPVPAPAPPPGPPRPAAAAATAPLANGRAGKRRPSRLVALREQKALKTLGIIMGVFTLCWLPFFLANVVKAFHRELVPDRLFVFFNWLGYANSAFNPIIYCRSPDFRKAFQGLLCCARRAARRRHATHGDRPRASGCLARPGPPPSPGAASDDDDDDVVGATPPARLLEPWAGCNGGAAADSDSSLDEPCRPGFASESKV

GRM1 = target: T3, GRM1 (Homo sapiens, UniProt Q13255); experiment: NanoBRET screen HiBiT-GRM1 in HEK293; settings: GRM1
T3 construct: purchased Promega (in-house HiBiT-GPCR construct library, NanoBRET)
T3 sequence (Q13255 19-1194): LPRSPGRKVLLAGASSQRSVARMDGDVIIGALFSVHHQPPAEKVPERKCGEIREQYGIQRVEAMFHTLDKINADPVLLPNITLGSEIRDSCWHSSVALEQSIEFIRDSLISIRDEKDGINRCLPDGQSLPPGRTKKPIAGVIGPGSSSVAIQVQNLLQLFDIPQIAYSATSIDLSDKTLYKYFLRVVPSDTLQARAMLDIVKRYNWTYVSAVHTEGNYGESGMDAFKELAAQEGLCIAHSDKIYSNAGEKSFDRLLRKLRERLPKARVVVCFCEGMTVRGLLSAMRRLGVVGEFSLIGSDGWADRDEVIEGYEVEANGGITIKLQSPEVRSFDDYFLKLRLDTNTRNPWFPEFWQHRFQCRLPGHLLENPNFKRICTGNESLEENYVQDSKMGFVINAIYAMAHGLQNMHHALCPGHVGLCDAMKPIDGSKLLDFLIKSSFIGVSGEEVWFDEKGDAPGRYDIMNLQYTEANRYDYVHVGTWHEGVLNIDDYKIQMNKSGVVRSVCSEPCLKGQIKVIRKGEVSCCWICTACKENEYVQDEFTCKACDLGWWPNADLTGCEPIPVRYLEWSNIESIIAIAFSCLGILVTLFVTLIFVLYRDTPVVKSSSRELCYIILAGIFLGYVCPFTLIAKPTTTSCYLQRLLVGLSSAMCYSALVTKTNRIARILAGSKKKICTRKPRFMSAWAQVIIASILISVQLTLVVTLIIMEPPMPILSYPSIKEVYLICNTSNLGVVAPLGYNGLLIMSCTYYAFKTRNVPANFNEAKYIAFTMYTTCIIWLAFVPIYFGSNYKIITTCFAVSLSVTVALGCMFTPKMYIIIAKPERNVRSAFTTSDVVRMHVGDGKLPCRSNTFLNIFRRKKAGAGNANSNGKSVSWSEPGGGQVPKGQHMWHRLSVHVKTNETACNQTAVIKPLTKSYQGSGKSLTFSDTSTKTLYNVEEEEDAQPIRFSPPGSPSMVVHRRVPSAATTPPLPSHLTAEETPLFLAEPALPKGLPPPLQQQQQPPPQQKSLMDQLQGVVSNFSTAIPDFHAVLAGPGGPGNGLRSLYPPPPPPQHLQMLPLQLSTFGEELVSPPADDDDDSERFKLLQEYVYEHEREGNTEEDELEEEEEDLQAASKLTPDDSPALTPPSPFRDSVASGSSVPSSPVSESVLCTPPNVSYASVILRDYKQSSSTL
Description: as §1, §2

T1 sequence (Q13639 whole entry): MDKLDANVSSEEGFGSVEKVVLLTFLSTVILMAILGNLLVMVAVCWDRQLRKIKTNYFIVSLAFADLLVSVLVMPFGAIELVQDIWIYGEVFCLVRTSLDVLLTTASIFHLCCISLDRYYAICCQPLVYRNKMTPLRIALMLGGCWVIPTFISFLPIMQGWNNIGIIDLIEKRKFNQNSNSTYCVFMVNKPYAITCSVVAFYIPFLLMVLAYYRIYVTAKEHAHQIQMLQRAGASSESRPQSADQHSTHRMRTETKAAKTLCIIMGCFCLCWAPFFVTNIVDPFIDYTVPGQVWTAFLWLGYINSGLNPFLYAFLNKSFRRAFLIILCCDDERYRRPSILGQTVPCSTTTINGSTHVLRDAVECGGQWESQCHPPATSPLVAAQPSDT

SMILES	NanoBRET Fold Response (HTR4; tracer 0.1μM)	NanoBRET Fold Response (HTR4; tracer 1μM)	NanoBRET Fold Response (ADRB1; tracer 0.1μM)	NanoBRET Fold Response (ADRB1; tracer 1μM)	NanoBRET Fold Response (GRM1; tracer 0.1μM)	NanoBRET Fold Response (GRM1; tracer 1μM)
Cc1nc2n(c(=O)c1CCN1CCC(c3noc4cc(F)ccc34)CC1)CCCC2OC(=O)NCCOCCOCCOCCOCCNC(=O)CCc1ccc2n1[B-](F)(F)[N+]1=C(c3ccc[nH]3)C=CC1=C2 (stereo not drawn) [Risperidone-2-NB590]	1.08	1.51	0.98	1.05	0.97	0.84
CC(C)N(CC[C@H](c1ccccc1)c1cc(CCNC(=O)CCOCCOCCOCCOCCNC(=O)CCc2ccc3n2[B-](F)(F)[N+]2=C(c4ccc[nH]4)C=CC2=C3)ccc1O)C(C)C [Tolterodine-2-NB590]	0.92	1.00	1.09	0.99	0.94	0.81
CC(C)N(CC[C@H](c1ccccc1)c1cc(CCNC(=O)c2ccc(CNC(=O)CCc3ccc4n3[B-](F)(F)[N+]3=C(c5ccc[nH]5)C=CC3=C4)cc2)ccc1O)C(C)C [Tolterodine-BZ-NB590]	0.94	0.99	1.02	1.10	0.88	0.19
CCCn1c(=O)c2[nH]c(-c3ccc(OCC(=O)NCCNC(=O)CCOCCNC(=O)c4ccc(CNC(=O)CCc5ccc6n5[B-](F)(F)[N+]5=C(c7ccc[nH]7)C=CC5=C6)cc4)cc3)nc2n(CCC)c1=O [XAC-3-NB590]	1.03	1.09	1.07	1.05	0.63	0.80
